In PubChem BioAssay AID248 (DTP/NCI, 2004):
Where “and” joins values, the source holds several entries; their conditions need not be identical. Identical values can stand only once. Inconclusive results and toxic doses are left out.

System: L1210 leukemia ip in BDF1 mice, survival T/C
Experiment: NCI In Vivo Anticancer Drug Screen. Data for tumor model L1210 Leukemia (intraperitoneal) in B6D2F1 (BDF1) mice
Conditions: endpoint: mean survival time, higher = longer survival
Procedure, shortened: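 Tumor was transplanted into mice, which were then dosed with test compound or vehicle alone. Survival was recorded for each group, and the treated figure was expressed relative to the control figure.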

In the case of `NC(=S)N/N=C/c1ccccn1`, the T/C (dose: 0.48 mg/kg/injection, schedule: Q01DX009 (ip), vehicle: saline with Tween-80) is reported as 97 % of control and 115 % of control, the T/C (dose: 0.9 mg/kg/injection, schedule: Q04DX002 (ip), vehicle: saline with Tween-80) is reported as 100 % of control and 107 % of control and the T/C (dose: 0.95 mg/kg/injection, schedule: Q01DX009 (ip), vehicle: saline with Tween-80) is reported as 106 % of control and 115 % of control. For the same molecule, the T/C (dose: 1.0 mg/kg/injection, schedule: Q03HX032 (ip), vehicle: other) was 117 % of control, the T/C (dose: 1.3 mg/kg/injection, schedule: Q01DX Z (ip), vehicle: carboxymethylcellulose (CMC)) was 118 % of control and the T/C (dose: 1.8 mg/kg/injection, schedule: Q03HX024 (ip), vehicle: carboxymethylcellulose (CMC)) was 92 % of control. The T/C (dose: 1.8 mg/kg/injection, schedule: Q03HX024 (ip), vehicle: other) was 111 % of control, the T/C (dose: 1.8 mg/kg/injection, schedule: Q04DX002 (ip), vehicle: saline with Tween-80) was 106 % of control and 110 % of control and the T/C (dose: 1.9 mg/kg/injection, schedule: Q01DX009 (ip), vehicle: saline with Tween-80) was 113 % of control and 121 % of control. The T/C (dose: 2.6 mg/kg/injection, schedule: Q03HX032 (ip), vehicle: other) was 213 % of control, the T/C (dose: 3.0 mg/kg/injection, schedule: Q01DX015 (ip), vehicle: saline) was 105 % of control and the T/C (dose: 3.0 mg/kg/injection, schedule: Q03HX032 (ip), vehicle: other) was 168 % of control. The T/C (dose: 3.5 mg/kg/injection, schedule: Q03HX008 (ip), vehicle: other) was 164 % of control, the T/C (dose: 3.5 mg/kg/injection, schedule: Q03HX016 (ip), vehicle: other) was 192 % of control and the T/C (dose: 3.5 mg/kg/injection, schedule: Q03HX024 (ip), vehicle: other) was 368 % of control. The T/C (dose: 3.5 mg/kg/injection, schedule: Q04DX002 (ip), vehicle: saline with Tween-80) was 104 % of control and 91 % of control, the T/C (dose: 3.8 mg/kg/injection, schedule: Q01DX009 (ip), vehicle: saline with Tween-80) was 121 % of control and the T/C (dose: 4.0 mg/kg/injection, schedule: Q03HX024 (ip), vehicle: carboxymethylcellulose (CMC)) was 197 % of control. For the same molecule, the T/C (dose: 4.0 mg/kg/injection, schedule: Q03HX024 (ip), vehicle: other) was 337 % of control, the T/C (dose: 4.0 mg/kg/injection, schedule: Q03HX024 (ip), vehicle: saline with Tween-80) was 345 % of control and the T/C (dose: 4.4 mg/kg/injection, schedule: Q01DX009 (ip), vehicle: saline) was 114 % of control. The T/C (dose: 4.4 mg/kg/injection, schedule: Q02DX010 (ip), vehicle: carboxymethylcellulose (CMC)) was 114 % of control, the T/C (dose: 5.0 mg/kg/injection, schedule: Q01DX015 (ip), vehicle: saline) was 103 % of control and the T/C (dose: 5.0 mg/kg/injection, schedule: Q03HX008 (ip), vehicle: other) was 175 % of control. For the same molecule, the T/C (dose: 5.0 mg/kg/injection, schedule: Q03HX016 (ip), vehicle: other) was 261 % of control, the T/C (dose: 5.0 mg/kg/injection, schedule: Q03HX024 (ip), vehicle: other) was 526 % of control and the T/C (dose: 5.0 mg/kg/injection, schedule: Q03HX032 (ip), vehicle: other) was 420 % of control. The T/C (dose: 5.0 mg/kg/injection, schedule: Q04DX003 (ip), vehicle: other) was 105 % of control, the T/C (dose: 5.0 mg/kg/injection, schedule: Q04DX003 (ip), vehicle: saline with Tween-80) was 116 % of control and the T/C (dose: 5.0 mg/kg/injection, schedule: Q08DX002 (ip), vehicle: other) was 102 % of control. For the same molecule, the T/C (dose: 6.0 mg/kg/injection, schedule: Q03HX024 (ip), vehicle: saline with Tween-80) was 376 % of control, the T/C (dose: 6.6 mg/kg/injection, schedule: Q02DX010 (ip), vehicle: carboxymethylcellulose (CMC)) was 121 % of control and the T/C (dose: 6.7 mg/kg/injection, schedule: Q01DX015 (ip), vehicle: other) was 169 % of control. The T/C (dose: 6.7 mg/kg/injection, schedule: Q02DX010 (ip), vehicle: carboxymethylcellulose (CMC)) was 114 % of control, the T/C (dose: 7.0 mg/kg/injection, schedule: Q01DX015 (ip), vehicle: saline) was 152 % of control and the T/C (dose: 7.0 mg/kg/injection, schedule: Q04DX002 (ip), vehicle: saline with Tween-80) was 107 % of control and 116 % of control. For the same molecule, the T/C (dose: 7.5 mg/kg/injection, schedule: Q03HX032 (ip), vehicle: other) was 150 % of control, the T/C (dose: 8.0 mg/kg/injection, schedule: Q04DX003 (ip), vehicle: other) was 101 % of control and the T/C (dose: 8.0 mg/kg/injection, schedule: Q08DX002 (ip), vehicle: other) was 104 % of control. For the same molecule, the T/C (dose: 10.0 mg/kg/injection, schedule: Q01DX009 (ip), vehicle: other) was 155 % of control, the T/C (dose: 10.0 mg/kg/injection, schedule: Q01DX009 (ip), vehicle: saline) was 114 % of control and the T/C (dose: 10.0 mg/kg/injection, schedule: Q01DX015 (ip), vehicle: other) was 164 % of control. The T/C (dose: 10.0 mg/kg/injection, schedule: Q02DX010 (ip), vehicle: carboxymethylcellulose (CMC)) was 120 % of control, the T/C (dose: 10.0 mg/kg/injection, schedule: Q04DX003 (ip), vehicle: saline with Tween-80) was 114 % of control and the T/C (dose: 10.7 mg/kg/injection, schedule: Q01DX Z (ip), vehicle: carboxymethylcellulose (CMC)) was 116 % of control. For the same molecule, the T/C (dose: 11.0 mg/kg/injection, schedule: Q01DX015 (ip), vehicle: saline) was 116 % of control, the T/C (dose: 12.0 mg/kg/injection, schedule: Q04DX003 (ip), vehicle: other) was 107 % of control and the T/C (dose: 12.0 mg/kg/injection, schedule: Q08DX002 (ip), vehicle: other) was 100 % of control. For the same molecule, the T/C (dose: 14.0 mg/kg/injection, schedule: Q04DX002 (ip), vehicle: saline with Tween-80) was 110 % of control and 112 % of control, the T/C (dose: 14.5 mg/kg/injection, schedule: Q01DX001 (ip), vehicle: other) was 105 % of control and the T/C (dose: 15.0 mg/kg/injection, schedule: Q01DX009 (ip), vehicle: other) was 159 % of control. The T/C (dose: 15.0 mg/kg/injection, schedule: Q02DX010 (ip), vehicle: carboxymethylcellulose (CMC)) was 120 % of control and 121 % of control (2×), the T/C (dose: 17.0 mg/kg/injection, schedule: Q01DX015 (ip), vehicle: saline) was 104 % of control and the T/C (dose: 18.0 mg/kg/injection, schedule: Q04DX003 (ip), vehicle: other) was 112 % of control. For the same molecule, the T/C (dose: 18.0 mg/kg/injection, schedule: Q08DX002 (ip), vehicle: other) was 97 % of control, the T/C (dose: 20.0 mg/kg/injection, schedule: Q04DX003 (ip), vehicle: saline with Tween-80) was 109 % of control and the T/C (dose: 22.0 mg/kg/injection, schedule: Q01DX001 (ip), vehicle: other) was 101 % of control and 114 % of control. The T/C (dose: 22.5 mg/kg/injection, schedule: Q02DX010 (ip), vehicle: carboxymethylcellulose (CMC)) was 109 % of control and 90 % of control, the T/C (dose: 25.0 mg/kg/injection, schedule: Q01DX015 (ip), vehicle: saline) was 90 % of control and the T/C (dose: 27.0 mg/kg/injection, schedule: Q04DX003 (ip), vehicle: other) was 104 % of control. The T/C (dose: 27.0 mg/kg/injection, schedule: Q08DX002 (ip), vehicle: other) was 95 % of control, the T/C (dose: 28.0 mg/kg/injection, schedule: Q04DX002 (ip), vehicle: saline with Tween-80) was 104 % of control and 107 % of control and the T/C (dose: 30.0 mg/kg/injection, schedule: Q01DX009 (ip), vehicle: saline with Tween-80) was 90 % of control. For the same molecule, the T/C (dose: 33.0 mg/kg/injection, schedule: Q01DX001 (ip), vehicle: other) was 105 % of control and 112 % of control, the T/C (dose: 34.0 mg/kg/injection, schedule: Q02DX010 (ip), vehicle: carboxymethylcellulose (CMC)) was 73 % of control and 89 % of control and the T/C (dose: 50.0 mg/kg/injection, schedule: Q01DX001 (ip), vehicle: other) was 104 % of control.
`C=CC[Se]c1ncnc2c1c(C#N)cn2C1OC(CO)C(O)C1O` (stereo unspecified) was tested, and the T/C (dose: 6.25 mg/kg/injection, schedule: Q01DX009 (ip), vehicle: saline) was 103 % of control, the T/C (dose: 12.5 mg/kg/injection, schedule: Q01DX009 (ip), vehicle: saline) was 107 % of control and the T/C (dose: 25.0 mg/kg/injection, schedule: Q01DX009 (ip), vehicle: saline) was 92 % of control.
For `CC(C)(C)OC(=O)NC1CCCCC1`, the T/C (dose: 100.0 mg/kg/injection, schedule: Q04DX002 (ip), vehicle: saline with Tween-80) was 111 % of control, the T/C (dose: 200.0 mg/kg/injection, schedule: Q04DX002 (ip), vehicle: saline with Tween-80) was 101 % of control and the T/C (dose: 400.0 mg/kg/injection, schedule: Q04DX002 (ip), vehicle: saline with Tween-80) was 104 % of control.
In the case of `CCOc1ccc(NC(=O)Oc2ccc(SC)c(C)c2)cc1`, the T/C (dose: 100.0 mg/kg/injection, schedule: Q01DX009 (ip), vehicle: Klucel (hydroxypropylcellulose) (HPC)) is reported as 91 % of control, the T/C (dose: 200.0 mg/kg/injection, schedule: Q01DX009 (ip), vehicle: Klucel (hydroxypropylcellulose) (HPC)) is reported as 91 % of control and the T/C (dose: 400.0 mg/kg/injection, schedule: Q01DX009 (ip), vehicle: Klucel (hydroxypropylcellulose) (HPC)) is reported as 96 % of control.
In the case of `NC(=O)CC(NC(=O)OCc1ccccc1)C(N)=O` (stereo unspecified), the T/C (dose: 100.0 mg/kg/injection, schedule: Q04DX003 (ip), vehicle: Klucel (hydroxypropylcellulose) (HPC)) is reported as 93 % of control, the T/C (dose: 200.0 mg/kg/injection, schedule: Q04DX003 (ip), vehicle: Klucel (hydroxypropylcellulose) (HPC)) is reported as 87 % of control and the T/C (dose: 400.0 mg/kg/injection, schedule: Q04DX003 (ip), vehicle: Klucel (hydroxypropylcellulose) (HPC)) is reported as 90 % of control.
For `NC(=O)N/N=C/CSCc1ccccc1`, the T/C (dose: 100.0 mg/kg/injection, schedule: Q04DX003 (ip), vehicle: saline with Tween-80) was 102 % of control, the T/C (dose: 200.0 mg/kg/injection, schedule: Q04DX003 (ip), vehicle: saline with Tween-80) was 97 % of control and the T/C (dose: 400.0 mg/kg/injection, schedule: Q04DX003 (ip), vehicle: saline with Tween-80) was 92 % of control.
